pIC50: −log10 of the molar value.

Usually pIC50 stands for the negative decadic logarithm of the IC50, by convention in mol/L.

Holding throughout (format): biochemical
The target in one experiment is CDK4/CycD3 (Homo sapiens (Human), UniProt P11802). The experiment can be described thus: CDK4 kinase assay (Mobility Shift Assay). The conditions noted are these: 28° C. Here is the method: (§1) • Method 1: In vitro enzymatic activity of the CDK isoforms CDK2/CycA2, CDK4/CycD3 and CDK6/cycD3 were measured using Mobility Shift Assay that monitors phosphorylation ratio of FAM labelled peptide (Peptide 18 for CDK2/CycA2, Peptide 8 for CDK4/CycD3). CDK2/CycA2 and CDK6/CycD3 were assayed under buffer conditions in the presence of 50 mM HEPES (pH 7.5), 10 mM MgCl2, 0.0015% Brij-35 and 2 mM dithiothreitol; CDK4/CycD3 with buffer condition of 20 mM HEPES (pH 7.5), 10 mM MgCl2, 0.01% Triton X-100 and 2 mM dithiothreitol. Prepare compounds to 50× of the final desired highest inhibitor concentration by 100% DMSO and serial dilution in 3-fold for total of 10 concentrations. For each isoform, dosage of enzyme and substrate are CDK2/CycA2 12 nM, ATP Km 39 μM; CDK4/CycD3 10 nM, ATP Km 221 μM; CDK6/cycD3 15 nM, ATP Km 800 μM. After assay for 60 min, 180 min, 60 min respectively at 28° C., reactions were terminated with stop solution (50 mM EDTA, 0.015% Brij-35, 0.2% Coating Reagent #3 and 100 mM HEPES (pH 7.5)). Collect conversion on Caliper EZ Reader. IC50 values were calculated by fitting the dose-response curves with Xlfit excel add-in version 4.3.1. • Method 2: In vitro enzymatic activity of the CDK isoforms CDK2/CycA2, CDK4/CycD3 and CDK6/CycD3 were measured using Mobility Shift Assay that monitors phosphorylation ratio of FAM labelled peptide (Peptide 18 for CDK2/CycA2, Peptide 8 for CDK4/CycD3 and CDK6/CycD3). CDK2/CycA2, CDK4/CycD3 and CDK6/cycD3 were assayed under buffer conditions in the presence of 50 mM HEPES (pH 7.5), 10 mM MgCl2, 0.0015% Brij-35 and 2 mM dithiothreitol. Prepare compounds to 100× of the final desired highest inhibitor concentration by 100% DMSO and serial dilution in 3-fold for total of 10 concentrations, each concentration contains 1% DMSO. […] After assay for 30 min, 150 min, 150 min respectively at 28° C., reactions were terminated with stop solution (50 mM EDTA, 0.015% Brij-35, 0.2% Coating Reagent #3 and 100 mM HEPES (pH 7.5)). Collect conversion on Caliper EZ Reader. IC50 values were calculated by fitting the dose-response curves with GraphPad Prism V5.0.

In another experiment the target is CDK6/CycD3 (Homo sapiens (Human), UniProt Q00534). The experiment can be described thus: CDK6 kinase assay (Mobility Shift Assay). Conditions: 28° C. As to the method: as §1
The next experiment deals with CDK2/CycA2 (Homo sapiens (Human), UniProt P24941). The experiment in a line: CDK2 kinase assay (Mobility Shift Assay). The conditions noted are these: 28° C. Here is the method: as §1
For experiment [1], the target named is recombinant, full-length HDAC-1 (Homo sapiens (Human), UniProt Q13547). The experiment can be described thus: HDAC-1 assay (fluorogenic Ac-peptide-AMC). Here is the method: (§2) 2. HDAC-1 and HDAC-6 Assays: • Method 1: The inhibitory effect of compounds on HDAC-1 and HDAC-6 function was determined in vitro using an optimized homogenous assay performed in 384-well plate format. In this assay, recombinant, full-length HDAC-1 or HDAC-6 protein (BPS Biosciences) was incubated with Ac-peptide-AMC with concentration in Km plot. Reactions were performed in Tris-based assay buffer and followed for fluorogenic release of 7-amino-4-methylcoumarin from substrate upon deacetylase and trypsin enzymatic activity. Fluorescence measurements were obtained using a multilabel plate reader (Synergy MX with excitation at 355 nm and emission at 460 nm.). Data were analyzed on a plate-by-plate basis for the linear range of fluorescence over time. Fit the data in GraphPad Prism V5.0 software to obtain ICso values using equation (Y=Bottom+(Top−Bottom)/(1+10^((Log IC50−X)*Hill Slope), Y is % inhibition and X is compound concentration).
as §2, with “The testing results of the representative compounds are listed in Table 1 below. •” for “2. HDAC-1 and HDAC-6 Assays: •”, “Method 2:” for “Method 1:”, “HDAC-1 (Active Motif) and” for “HDAC-1 or”, “(Synergy” for “(Synergy MX”, “obtain IC50” for “obtain ICso”

The target of experiment [2] is recombinant, full-length HDAC-6 (Homo sapiens (Human), UniProt Q9UBN7). The experiment can be described thus: HDAC-6 assay (fluorogenic Ac-peptide-AMC). As to the method: as §2
as §2, with “The testing results of the representative compounds are listed in Table 1 below. •” for “2. HDAC-1 and HDAC-6 Assays: •”, “Method 2:” for “Method 1:”, “HDAC-1 (Active Motif) and” for “HDAC-1 or”, “(Synergy” for “(Synergy MX”, “obtain IC50” for “obtain ICso”

Setting [3] is: method 1: CDK4/CycD3 10 nM, ATP Km 221 μM, 180 min.
Setting [4] is: method 1: CDK6/cycD3 15 nM, ATP Km 800 μM, 60 min.
Where [5] appears, read: method 1: CDK2/CycA2 12 nM, ATP Km 39 μM, 60 min.
The mark [6] stands for this setting: method 1: HDAC-1 protein (BPS Biosciences).
Setting [7] is: method 1: HDAC-6 protein (BPS Biosciences).
Where [8] appears, read: method 2: CDK4/CycD3 10 nM, ATP Km 250 μM, 150 min.
The mark [9] stands for this setting: method 2: CDK6/cycD3 5 nM, ATP Km 550 μM, 150 min.
The mark [10] stands for this setting: method 2: CDK2/CycA2 2.5 nM, ATP Km 17 μM, 30 min.
Where [11] appears, read: method 2: HDAC-1 (Active Motif).
Setting [12] is: method 2: HDAC-6 protein (BPS Biosciences).

Chain of recombinant, full-length HDAC-6 (Q9UBN7 whole entry): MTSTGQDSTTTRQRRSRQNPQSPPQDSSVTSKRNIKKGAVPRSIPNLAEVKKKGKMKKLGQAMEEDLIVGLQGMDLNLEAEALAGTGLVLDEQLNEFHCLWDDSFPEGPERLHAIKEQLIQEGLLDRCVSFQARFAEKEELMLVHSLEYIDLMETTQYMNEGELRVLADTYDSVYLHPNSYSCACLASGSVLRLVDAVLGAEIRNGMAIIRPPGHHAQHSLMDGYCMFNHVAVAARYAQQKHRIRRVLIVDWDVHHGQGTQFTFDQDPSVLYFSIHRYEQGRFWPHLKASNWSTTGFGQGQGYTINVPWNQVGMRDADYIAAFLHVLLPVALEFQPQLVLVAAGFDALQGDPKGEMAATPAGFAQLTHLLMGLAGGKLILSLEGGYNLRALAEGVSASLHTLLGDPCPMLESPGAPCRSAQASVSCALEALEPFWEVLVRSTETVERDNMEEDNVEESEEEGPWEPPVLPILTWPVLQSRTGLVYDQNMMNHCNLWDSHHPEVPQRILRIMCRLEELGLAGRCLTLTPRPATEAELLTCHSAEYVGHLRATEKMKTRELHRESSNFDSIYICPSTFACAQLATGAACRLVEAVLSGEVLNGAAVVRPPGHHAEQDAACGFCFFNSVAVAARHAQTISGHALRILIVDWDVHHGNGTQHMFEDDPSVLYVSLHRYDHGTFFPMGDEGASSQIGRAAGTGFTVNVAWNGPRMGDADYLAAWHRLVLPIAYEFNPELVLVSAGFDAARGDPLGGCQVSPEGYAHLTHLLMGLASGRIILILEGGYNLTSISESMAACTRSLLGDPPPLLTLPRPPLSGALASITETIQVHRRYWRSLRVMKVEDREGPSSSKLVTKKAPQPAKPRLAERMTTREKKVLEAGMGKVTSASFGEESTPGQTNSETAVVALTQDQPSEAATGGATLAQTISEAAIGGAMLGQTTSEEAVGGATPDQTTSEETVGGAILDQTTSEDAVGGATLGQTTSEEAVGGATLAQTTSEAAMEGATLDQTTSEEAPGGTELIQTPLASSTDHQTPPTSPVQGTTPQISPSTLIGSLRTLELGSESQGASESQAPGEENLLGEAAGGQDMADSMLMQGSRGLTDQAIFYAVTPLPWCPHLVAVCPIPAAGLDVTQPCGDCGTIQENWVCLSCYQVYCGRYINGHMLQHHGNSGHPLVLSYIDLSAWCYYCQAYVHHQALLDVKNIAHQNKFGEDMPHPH
Chain of CDK4/CycD3 (P11802 whole entry, species assumed, canonical isoform): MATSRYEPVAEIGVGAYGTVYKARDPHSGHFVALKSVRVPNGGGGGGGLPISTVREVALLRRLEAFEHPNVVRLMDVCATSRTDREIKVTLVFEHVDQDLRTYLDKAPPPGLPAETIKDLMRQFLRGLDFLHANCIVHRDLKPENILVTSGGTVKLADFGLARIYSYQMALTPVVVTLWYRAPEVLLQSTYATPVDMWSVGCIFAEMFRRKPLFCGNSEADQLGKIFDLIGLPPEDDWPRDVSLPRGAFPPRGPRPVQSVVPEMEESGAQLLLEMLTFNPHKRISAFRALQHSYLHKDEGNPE
Chain of CDK4/CycD3 (P30281 whole entry partner, species assumed, canonical isoform): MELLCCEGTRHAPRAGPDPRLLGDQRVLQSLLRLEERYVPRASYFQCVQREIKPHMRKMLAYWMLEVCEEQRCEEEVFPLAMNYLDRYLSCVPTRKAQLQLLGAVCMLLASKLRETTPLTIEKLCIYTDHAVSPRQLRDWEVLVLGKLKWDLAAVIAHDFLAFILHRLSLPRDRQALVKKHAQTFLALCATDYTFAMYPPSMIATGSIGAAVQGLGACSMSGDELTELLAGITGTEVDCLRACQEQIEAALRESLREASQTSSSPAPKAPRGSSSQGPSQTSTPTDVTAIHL
Chain of CDK6/CycD3 (Q00534 whole entry, species assumed): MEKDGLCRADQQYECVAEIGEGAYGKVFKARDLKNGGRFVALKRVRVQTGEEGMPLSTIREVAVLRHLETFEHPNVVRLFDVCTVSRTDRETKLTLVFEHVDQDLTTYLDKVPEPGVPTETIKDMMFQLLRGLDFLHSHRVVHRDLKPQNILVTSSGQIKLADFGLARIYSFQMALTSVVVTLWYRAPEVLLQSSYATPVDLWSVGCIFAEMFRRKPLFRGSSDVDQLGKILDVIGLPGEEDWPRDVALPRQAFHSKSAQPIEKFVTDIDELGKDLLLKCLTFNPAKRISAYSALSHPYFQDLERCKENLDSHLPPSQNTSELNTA
Chain of CDK6/CycD3 (P30281 whole entry partner, species assumed): as the sequence (P30281 whole entry partner, species assumed, canonical isoform) above
Chain of recombinant, full-length HDAC-1 (Q13547 whole entry): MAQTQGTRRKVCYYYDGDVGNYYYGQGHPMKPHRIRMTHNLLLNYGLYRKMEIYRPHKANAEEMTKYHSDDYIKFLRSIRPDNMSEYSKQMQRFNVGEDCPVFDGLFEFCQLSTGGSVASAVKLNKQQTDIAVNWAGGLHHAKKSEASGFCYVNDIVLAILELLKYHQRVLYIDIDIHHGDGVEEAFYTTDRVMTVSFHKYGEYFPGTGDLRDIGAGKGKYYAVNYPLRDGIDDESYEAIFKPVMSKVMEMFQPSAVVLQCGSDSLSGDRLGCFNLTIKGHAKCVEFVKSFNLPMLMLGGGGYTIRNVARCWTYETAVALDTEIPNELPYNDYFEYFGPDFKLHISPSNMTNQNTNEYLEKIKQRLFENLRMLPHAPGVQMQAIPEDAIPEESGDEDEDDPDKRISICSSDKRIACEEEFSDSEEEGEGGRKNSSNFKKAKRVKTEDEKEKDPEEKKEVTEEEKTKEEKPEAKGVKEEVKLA

On to `CC(=O)c1c(C)c2cnc(Nc3ccc(N(C)CCN(C)c4ncc(C(=O)NO)cn4)cn3)nc2n(C2CCCC2)c1=O` [Compound 1, 2-((2-((6-((6-acetyl-8-cyclopentyl-5-methyl-7-oxo-7,8-dihydropyrido[2,3-d]pyrimidin-2-yl)amino)pyridin-3-yl) (methyl)amino)ethyl) (methyl)amino)-N-hydroxypyrimidine-5-carboxamide], for which the negative logarithm of the IC50 (pIC50) on CDK4/CycD3 (setting [3]) was not below 8.00; at CDK6/CycD3 (setting [4]) it was 7.30 to 7.60; on CDK2/CycA2 (setting [5]) it was less than 5.00; in experiment [1] (setting [6]), 8.00 to 8.30; in experiment [2] (setting [7]), 7.30 to 8.00.

Regarding `CC(=O)c1c(C)c2cnc(Nc3ccc(N(C)Cc4ccc(/C=C/C(=O)NO)cc4)cn3)nc2n(C2CCCC2)c1=O` [Compound 2, (E)-3-(4-(((6-((6-acetyl-8-cyclopentyl-5-methyl-7-oxo-7,8-dihydropyrido[2,3-d]pyrimidin-2-yl)amino)pyridin-3-yl)(methyl)amino)methyl)phenyl)-N-hydroxyacrylamide], the pIC50 at CDK4/CycD3 (setting [3]) was 7.60 to 8.00; on CDK6/CycD3 (setting [4]), 7.00 to 7.30; on CDK2/CycA2 (setting [5]) it was less than 5.70; in experiment [1] (setting [6]), 7.30 to 8.00; in experiment [2] (setting [7]) it was 7.12 to 7.30.

For `CC(=O)c1c(C)c2cnc(Nc3ccc(N(C)CCN(C)c4ccc(C(=O)NO)cn4)cn3)nc2n(C2CCCC2)c1=O` [Compound 3, 6-((2-((6-((6-acetyl-8-cyclopentyl-5-methyl-7-oxo-7,8-dihydropyrido[2,3-d]pyrimidin-2-yl)amino)pyridin-3-yl)(methyl)amino)ethyl)(methyl)amino)-N-hydroxynicotinamide], the pIC50 on CDK4/CycD3 (setting [8]) is 7.60 to 8.00; on CDK6/CycD3 (setting [9]), 7.30 to 7.60; on CDK2/CycA2 (setting [10]) it was less than 5.70; in experiment [1] (setting [11]) it was 7.12 to 7.30; in experiment [2] (setting [12]), 7.00 to 7.12.

As to `CC(=O)c1c(C)c2cnc(Nc3ccc(N(C)CCN(C)c4ccc(C(=O)NO)nc4)cn3)nc2n(C2CCCC2)c1=O` [Compound 4, 5-((2-((6-((6-acetyl-8-cyclopentyl-5-methyl-7-oxo-7,8-dihydropyrido[2,3-d]pyrimidin-2-yl)amino)pyridin-3-yl)(methyl)amino)ethyl)(methyl)amino)-N-hydroxypicolinamide], the pIC50 on CDK4/CycD3 (setting [8]) is not below 8.00; at CDK6/CycD3 (setting [9]) it was 7.30 to 7.60; at CDK2/CycA2 (setting [10]), less than 5.30.

Regarding `CC(=O)c1c(C)c2cnc(Nc3ccc(OCCN(C)c4ccc(C(=O)NO)cn4)cn3)nc2n(C2CCCC2)c1=O` [Compound 5, 6-((2-((6-((6-acetyl-8-cyclopentyl-5-methyl-7-oxo-7,8-dihydropyrido[2,3-d]pyrimidin-2-yl)amino)pyridin-3-yl)oxy)ethyl)(methyl)amino)-N-hydroxynicotinamide], the pIC50 was not below 8.00 on CDK4/CycD3 (setting [8]); 7.30 to 7.60 on CDK6/CycD3 (setting [9]); less than 5.70 on CDK2/CycA2 (setting [10]); not below 8.30 in experiment [1] (setting [11]); 8.00 to 8.30 in experiment [2] (setting [12]).

`CC(=O)c1c(C)c2cnc(Nc3ccc(N4CCC(C(=O)NO)CC4)cn3)nc2n(C2CCCC2)c1=O` [Compound 7, 1-(6-((6-acetyl-8-cyclopentyl-5-methyl-7-oxo-7,8-dihydropyrido[2,3-d]pyrimidin-2-yl)amino)pyridin-3-yl)-N-hydroxypiperidine-4-carboxamide]: the pIC50 was not below 8.00 on CDK4/CycD3 (setting [8]), 7.30 to 7.60 on CDK6/CycD3 (setting [9]) and less than 5.70 on CDK2/CycA2 (setting [10]).

Turning to `CC(=O)c1c(C)c2cnc(Nc3ccc(N(C)CCN(C)c4ccc(C(=O)NO)cc4)cn3)nc2n(C2CCCC2)c1=O` [Compound 8, 4-((2-((6-((6-acetyl-8-cyclopentyl-5-methyl-7-oxo-7,8-dihydropyrido[2,3-d]pyrimidin-2-yl)amino)pyridin-3-yl) (methyl)amino)ethyl) (methyl)amino)-N-hydroxybenzamide], the values for the pIC50 at CDK4/CycD3 (setting [8]), on CDK6/CycD3 (setting [9]) and at CDK2/CycA2 (setting [10]) were not below 8.00, 7.30 to 7.60 and less than 5.30, respectively.

As for `CC(=O)c1c(C)c2cnc(Nc3ccc(N(C)CCCCCCC(=O)NO)cn3)nc2n(C2CCCC2)c1=O` [Compound 9, 7-((6-((6-acetyl-8-cyclopentyl-5-methyl-7-oxo-7,8-dihydropyrido[2,3-d]pyrimidin-2-yl)amino)pyridin-3-yl)(methyl)amino)-N-hydroxyheptanamide], the pIC50 was 7.60 to 8.00 at CDK4/CycD3 (setting [8]); 7.30 to 7.60 at CDK6/CycD3 (setting [9]); less than 5.30 on CDK2/CycA2 (setting [10]); 8.00 to 8.30 in experiment [1] (setting [11]); 7.30 to 8.00 in experiment [2] (setting [12]).

For `CC(=O)c1c(C)c2cnc(Nc3ccc(OCCN(C)c4ncc(C(=O)NO)cn4)cn3)nc2n(C2CCCC2)c1=O` [Compound 10, 2-((2-((6-((6-acetyl-8-cyclopentyl-5-methyl-7-oxo-7,8-dihydropyrido[2,3-d]pyrimidin-2-yl)amino)pyridin-3-yl)oxy)ethyl)(methyl)amino)-N-hydroxypyrimidine-5-carboxamide], the pIC50 on CDK4/CycD3 (setting [8]) was 7.60 to 8.00; on CDK6/CycD3 (setting [9]), 7.30 to 7.60; at CDK2/CycA2 (setting [10]) it was less than 5.00; in experiment [1] (setting [11]), not below 8.30; in experiment [2] (setting [12]) it was 7.30 to 8.00.

The record behind these values is patent publication US12358911B2, “Heterocyclic comipound as CDK-HDAC dual pathway inhibitor” (Hangzhou Innogate Pharma Co., Ltd., priority 2018, dated 2025).
